Experiments:
FXR = target: T1, FXR (Rattus norvegicus, UniProt Q62735); experiment: cell-based
T1 sequence (Q62735 1-469): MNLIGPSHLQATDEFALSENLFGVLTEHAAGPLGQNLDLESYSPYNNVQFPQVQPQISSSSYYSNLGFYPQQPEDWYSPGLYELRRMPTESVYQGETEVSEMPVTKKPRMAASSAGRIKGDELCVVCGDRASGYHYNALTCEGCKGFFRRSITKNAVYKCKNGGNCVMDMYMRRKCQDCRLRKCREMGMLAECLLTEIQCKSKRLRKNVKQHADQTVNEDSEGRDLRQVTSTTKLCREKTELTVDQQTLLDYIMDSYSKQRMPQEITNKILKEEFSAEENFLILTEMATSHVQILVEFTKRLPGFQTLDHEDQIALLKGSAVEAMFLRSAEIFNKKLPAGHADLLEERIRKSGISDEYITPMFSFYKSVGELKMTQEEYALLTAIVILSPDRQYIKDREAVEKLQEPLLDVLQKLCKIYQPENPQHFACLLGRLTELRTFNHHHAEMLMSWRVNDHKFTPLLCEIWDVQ
T1 sequence (P28700 1-467 partner): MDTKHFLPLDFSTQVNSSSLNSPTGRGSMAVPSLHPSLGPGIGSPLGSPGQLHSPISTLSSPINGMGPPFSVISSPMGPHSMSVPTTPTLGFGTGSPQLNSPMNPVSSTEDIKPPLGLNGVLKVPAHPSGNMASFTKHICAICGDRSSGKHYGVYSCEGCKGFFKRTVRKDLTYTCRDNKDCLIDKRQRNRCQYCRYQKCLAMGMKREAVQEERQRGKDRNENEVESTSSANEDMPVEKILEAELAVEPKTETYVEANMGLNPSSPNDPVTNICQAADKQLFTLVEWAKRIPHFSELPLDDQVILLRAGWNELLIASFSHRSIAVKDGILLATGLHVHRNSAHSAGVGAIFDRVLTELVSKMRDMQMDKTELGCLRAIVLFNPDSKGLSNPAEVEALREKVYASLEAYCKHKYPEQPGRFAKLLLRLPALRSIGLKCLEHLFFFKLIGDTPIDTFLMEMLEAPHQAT
Method in brief: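 CHO cells co-transfected with FXR, mouse RXRα and a (EcRE)5-ΔMTV-CAT reporter, with β-galactosidase for normalization. An RXR-dependent CRBPII-CAT reporter was run in parallel. Cells were exposed to candidate juvenoids for 24 h; CAT activity normalized to β-gal and expressed as fold induction over vehicle controls.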

[1] = via 20,22-dihydroxycholesterol intermediate; read-out: apparent Km of metabolism to pregnenolone; cited from earlier work
[2] = test system: Leptinotarsa decemlineata EcR; experiment: Leptinotarsa decemlineata EcR/USP, response to agonists (FIG. 7, 8); format: cell-based; settings: FIG. 8
Method: Unless noted otherwise, 100 ng of each EcR and USP plasmid was transfected into 2 ml of cell culture medium. As noted above, a reporter gene carrying five tandem copies of the hsp27 ecdysone response element (Riddihough and Pelham, 1986) is attached to a constitutive thymidine kinase promoter and a luciferase reporter gene (pEcREtk-LUC) and cotransfected into the cells along with vectors expressing EcR, USP, and a constitutively active β-galactosidase gene with lipofection, following manufacturer's protocols. The subsequent measure of luciferase activity reflects ecdysteroid-inducible transcription.
After a 4 hour transfection period, the hormone treatment was applied by diluting stock solutions of muristerone A (murA; Alexis Corporation, San Diego, Calif.), JHI (Scitech), JHIII (Sigma, St Louis, Mo.), and/or 20E (Sigma, St Louis, Mo.) in DMSO. The cells were harvested 24 hours after treatment and the contents of the cells extracted for performing the luciferase and β-galactosidase assays.
Leptinotarsa decemlineata (Ld) USP constructs were made by sub-cloning two different LdUSP inserts into the pVP16 vector (Clontech). This vector encodes a fusion protein of the herpes simplex virus […] viral protein (VP16) activation domain (AD) fused to LdUSP. The LdUSP portion of the fusion gene was isolated by PCR in two different lengths from a plasmid, pBSKS(+)-LdUSP. […]

GGF = target: T2, GGF (Rattus norvegicus, UniProt Q62735); experiment: GGF chimera (GR amino terminus and DBD, FXR LBD) in CHO cells; format: cell-based; settings: data not shown
T2 construct: the GR amino terminus and DBD (appending 23 amino acids downstream from the conserved gly-met) were fused to the FXR LBD; expressed in transfected cells; host or cells: CHO
Source text: A plasmid was constructed that expresses a hybrid protein (GGF) consisting of the human GR amino terminus and DBD linked to the carboxyl terminus of FXR.
In these experiments, CHO cells were transfected with receptor plasmids expressing GGF and mouse RXRα and a luciferase reporter plasmid containing the upstream 1.5 kbp of the MTV promoter.

RAR = experiment: RAR-based transcriptional assay; format: cell-based; settings: data not shown
RXR = RXR (Mus musculus, UniProt P28700); experiment: RXR-based transcriptional assay; format: cell-based; settings: data not shown
PPAR = experiment: PPAR-based transcriptional assay; format: cell-based; settings: data not shown
GR = GR (Homo sapiens, UniProt P04150); experiment: GR-based transcriptional assay; format: cell-based; settings: data not shown
Sequence of GR (P04150 whole entry): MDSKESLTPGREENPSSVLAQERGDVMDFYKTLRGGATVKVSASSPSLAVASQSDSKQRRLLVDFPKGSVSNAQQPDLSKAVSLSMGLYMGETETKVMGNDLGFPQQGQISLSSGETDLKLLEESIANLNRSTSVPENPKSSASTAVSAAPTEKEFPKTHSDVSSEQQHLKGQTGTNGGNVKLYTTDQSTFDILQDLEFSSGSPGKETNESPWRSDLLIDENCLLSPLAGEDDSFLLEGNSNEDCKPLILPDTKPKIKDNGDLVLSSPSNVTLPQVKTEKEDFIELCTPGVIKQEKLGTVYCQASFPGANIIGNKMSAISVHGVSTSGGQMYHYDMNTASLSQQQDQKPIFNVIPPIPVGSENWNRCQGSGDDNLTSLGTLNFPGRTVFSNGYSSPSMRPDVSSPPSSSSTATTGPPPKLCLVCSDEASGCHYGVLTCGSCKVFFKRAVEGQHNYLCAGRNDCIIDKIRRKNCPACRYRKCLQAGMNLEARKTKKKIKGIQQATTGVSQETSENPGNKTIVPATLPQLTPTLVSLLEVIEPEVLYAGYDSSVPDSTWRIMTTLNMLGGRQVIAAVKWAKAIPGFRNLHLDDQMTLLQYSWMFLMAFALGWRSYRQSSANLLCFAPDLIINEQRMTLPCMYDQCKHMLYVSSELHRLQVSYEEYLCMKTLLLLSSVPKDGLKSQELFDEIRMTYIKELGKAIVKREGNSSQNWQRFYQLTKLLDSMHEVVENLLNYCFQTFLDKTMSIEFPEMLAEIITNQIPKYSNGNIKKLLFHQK

CC(C)CC[C@@H](O)[C@@H](C)[C@H]1CC[C@H]2[C@@H]3CC=C4C[C@@H](O)CC[C@]4(C)[C@H]3CC[C@]12C [22R-hydroxycholesterol, 22R-Hydroxycholesterol]
FXR-dependent transcription, induction (FXR; 7.5 μM): 10 fold
Km [1]: 7 µM

COc1cccc(C(=O)NN(C(=O)c2cc(C)cc(C)c2)C(C)(C)C)c1C [RH2485]
stimulation of Leptinotarsa EcR, agonists compared [2]: much greater stimulation by RH2485, than by murA or 20E

O=c1ccc2cc(O)c(O)cc2o1 [esculetin]
FXR-dependent activity, induction (FXR; 1 mM): ineffectiveness
inhibition at 100 µM (FXR; CHO, read-out: inhibition of FXR activity induced by farnesol): 44%
inhibition of CDCA-induced GGF-dependent activity (GGF): 54%

COc1ccc2c(c1)OC(C)(C)C=C2 [precocene I]
reduction of FXR activity of mouse liver microsome extract by ethyl acetate-soluble products (FXR; 100 μM TLC-purified precocene I incubated with CD-1 mouse liver microsomes, NADPH, 37° C., one hour): 70%
FXR-dependent activity, induction (FXR; dose not stated): 15 fold
FXR activity of TLC-separated material from precocene I (FXR; eluted from silica, hexane-ethyl acetate (9:1)): did not affect FXR
EC50 (FXR; read-out: EC50 for FXR-dependent CAT activity): 150 µM
activity in RAR-based transcriptional assay (RAR): inactive
activity in RXR-based transcriptional assay (RXR): inactive
activity in PPAR-based transcriptional assay (PPAR): inactive
activity in GR-based transcriptional assay (GR): inactive
